ChEMBL document CHEMBL4765407, “Design, synthesis and high antitumor potential of new unsymmetrical bisacridine derivatives towards human solid tumors, specifically pancreatic cancers and their unique ability to stabilize DNA G-quadruplexes” (Eur J Med Chem, 2020)

Columns and labels:
[1] = tested on: DU-145; assay: Cytotoxicity against human DU-145 cells assessed as reduction in cell viability measured after 72 hrs by SRB assay; format: functional, cell-based; conditions: DU-145, 72 h
[2] = tested on: HCT-116; assay: Cytotoxicity against human HCT-116 cells assessed as reduction in cell viability measured after 72 hrs by SRB assay; format: functional, cell-based; conditions: HCT-116, 72 h
[3] = tested on: MDA-MB-231; assay: Cytotoxicity against human MDA-MB-231 cells assessed as reduction in cell viability measured after 72 hrs by SRB assay; format: functional, cell-based; conditions: MDA-MB-231, 72 h
[4] = tested on: PANC-1; assay: Cytotoxicity against human PANC-1 cells assessed as reduction in cell viability measured after 72 hrs by SRB assay; format: functional, cell-based; conditions: PANC-1, 72 h
[5] = tested on: MIA PaCa-2; assay: Cytotoxicity against human MIA PaCa-2 cells assessed as reduction in cell viability measured after 72 hrs by SRB assay; format: functional, cell-based; conditions: MIA PaCa-2, 72 h
[6] = tested on: BXPC-3; assay: Cytotoxicity against human BXPC-3 cells assessed as reduction in cell viability measured after 72 hrs by SRB assay; format: functional, cell-based; conditions: BXPC-3, 72 h
[7] = tested on: ASPC1; assay: Cytotoxicity against human ASPC1 cells assessed as reduction in cell viability measured after 72 hrs by SRB assay; format: functional, cell-based; conditions: ASPC1, 72 h
[8] = tested on: Capan-2; assay: Cytotoxicity against human Capan-2 cells assessed as reduction in cell viability measured after 72 hrs by SRB assay; format: functional, cell-based; conditions: Capan-2, 72 h
[9] = tested on: ASPC1; assay: Antitumour activity against human ASPC1 cells xenografted in Crl:Nu-Foxnl nu mouse assessed as inhibition of tumour growth at total effective dose of 48 mg/kg, iv measured on day 36; format: functional; conditions: 864 h, time 36 day, read-out: TGI
[10] = tested on: PANC-1; assay: Antitumour activity against human PANC-1 cells xenografted in Crl:Nu-Foxnl nu mouse assessed as inhibition of tumour growth at total effective dose of 16 mg/kg, iv measured on day 47; format: functional; conditions: PANC-1, iv, 1128 h, time 47 day, read-out: TGI
[11] = tested on: PANC-1; assay: Antitumour activity against human PANC-1 cells xenografted in Crl:Nu-Foxnl nu mouse assessed as inhibition of tumour growth at total effective dose of 160 mg/kg, iv measured on day 50; format: functional; conditions: PANC-1, iv, 1200 h, time 50 day, read-out: TGI
[12] = tested on: BXPC-3; assay: Antitumour activity against human BXPC-3 cells xenografted in Crl:Nu-Foxnl nu mouse assessed as inhibition of tumour growth at total effective dose of 40 mg/kg, iv measured on day 34; format: functional; conditions: BXPC-3, iv, 816 h, time 34 day, read-out: TGI
[13] = tested on: Quadruplex DNA; assay: Stabilization of 5'-FAM/3'-TAMRA labeled c-Myc promoter G4 quadruplex DNA FPu18 (unknown origin) assessed as change in melting temperature at 10 microM measured after 15 mins by FRET assay; format: nucleic-acid assay
[14] = tested on: Quadruplex DNA; assay: Stabilization of 5'-FAM/3'-TAMRA labeled telomeric G4 quadruplex DNA F21T (unknown origin) assessed as change in melting temperature at 10 microM measured after 15 mins by FRET assay; format: nucleic-acid assay
[15] = tested on: Quadruplex DNA; assay: Stabilization of 5'-FAM/3'-TAMRA labeled K-Ras G4 quadruplex DNA (unknown origin) assessed as change in melting temperature at 10 microM measured after 15 mins by FRET assay; format: nucleic-acid assay
[16] = Stabilization of ds 5'-FAM-d(TATAGCTATA-HEG-TATAGCTATA)-TAMRA-3' (unknown origin) assessed as change in melting temperature at 10 microM measured after 15 mins by FRET assay; conditions: Homo sapiens
[17] = tested on: MCF7; assay: Cytotoxicity against human MCF7 cells assessed as reduction in cell viability measured after 72 hrs by SRB assay; format: functional, cell-based; conditions: MCF7, 72 h
[18] = tested on: PANC-1; assay: Antitumour activity against human PANC-1 cells xenografted in Crl:Nu-Foxnl nu mouse assessed as inhibition of tumour growth at total effective dose of 16 mg/kg, iv measured on day 38; format: functional; conditions: PANC-1, iv, 912 h, time 38 day, read-out: TGI
[19] = tested on: PANC-1; assay: Antitumour activity against human PANC-1 cells xenografted in Crl:Nu-Foxnl nu mouse assessed as inhibition of tumour growth at total effective dose of 16 mg/kg, iv measured on day 60; format: functional; conditions: PANC-1, iv, 1440 h, time 60 day, read-out: TGI
[20] = tested on: PANC-1; assay: Antitumour activity against human PANC-1 cells xenografted in Crl:Nu-Foxnl nu mouse assessed as inhibition of tumour growth at total effective dose of 8 mg/kg, iv measured on day 52; format: functional; conditions: PANC-1, iv, 1248 h, time 52 day, read-out: TGI
[21] = tested on: PANC-1; assay: Antitumour activity against human PANC-1 cells xenografted in Crl:Nu-Foxnl nu mouse assessed as inhibition of tumour growth at total effective dose of 16 mg/kg, iv measured on day 40; format: functional; conditions: PANC-1, iv, 960 h, time 40 day, read-out: TGI
[22] = tested on: PANC-1; assay: Antitumour activity against human PANC-1 cells xenografted in Crl:Nu-Foxnl nu mouse assessed as inhibition of tumour growth at total effective dose of 120 mg/kg, iv measured on day 37; format: functional; conditions: PANC-1, iv, 888 h, time 37 day, read-out: TGI
[23] = tested on: PANC-1; assay: Antitumour activity against human PANC-1 cells xenografted in Crl:Nu-Foxnl nu mouse assessed as inhibition of tumour growth at total effective dose of 160 mg/kg, iv measured on day 56; format: functional; conditions: PANC-1, iv, 1344 h, time 56 day, read-out: TGI
[24] = tested on: NCI-H460; assay: Cytotoxicity against human NCI-H460 cells assessed as reduction in cell viability measured after 72 hrs by SRB assay; format: functional, cell-based; conditions: NCI-H460, 72 h
[25] = tested on: PANC-1; assay: Antitumour activity against human PANC-1 cells xenografted in Crl:Nu-Foxnl nu mouse assessed as inhibition of tumour growth at total effective dose of 80 mg/kg, iv measured on day 56; format: functional; conditions: PANC-1, iv, 1344 h, time 56 day, read-out: TGI
[26] = tested on: MIA PaCa-2; assay: Antitumour activity against human MIA PaCa-2 cells xenografted in Crl:Nu-Foxnl nu mouse assessed as inhibition of tumour growth at total effective dose of 20 mg/kg, ip measured on day 33; format: functional; conditions: MIA PaCa-2, ip, 792 h, time 33 day, read-out: TGI
[27] = tested on: BXPC-3; assay: Antitumour activity against human BXPC-3 cells xenografted in Crl:Nu-Foxnl nu mouse assessed as inhibition of tumour growth at total effective dose of 80 mg/kg, iv measured on day 32; format: functional; conditions: BXPC-3, iv, 768 h, time 32 day, read-out: TGI
[28] = tested on: PANC-1; assay: Antitumour activity against human PANC-1 cells xenografted in Crl:Nu-Foxnl nu mouse assessed as inhibition of tumour growth at total effective dose of 48 mg/kg, iv measured on day 32; format: functional; conditions: PANC-1, iv, 768 h, time 32 day, read-out: TGI
[29] = Toxicity in BALB/c mouse assessed as effect on body weight at 60 mg/kg, iv administered as single dose measured for 64 days; format: organism-based; conditions: in vivo, 1536 h, time 64 day
[30] = Toxicity in BALB/c mouse assessed as macroscopic anatomopathological changes at 60 mg/kg, iv administered as single dose measured for 64 days; format: organism-based; conditions: in vivo, 1536 h, time 64 day
[31] = tested on: BXPC-3; assay: Antitumour activity against human BXPC-3 cells xenografted in Crl:Nu-Foxnl nu mouse assessed as inhibition of tumour growth at total effective dose of 160 mg/kg, iv measured on day 36; format: functional; conditions: BXPC-3, iv, 864 h, time 36 day, read-out: TGI
[32] = tested on: BXPC-3; assay: Antitumour activity against human BXPC-3 cells xenografted in Crl:Nu-Foxnl nu mouse assessed as inhibition of tumour growth at total effective dose of 160 mg/kg, iv measured on day 32; format: functional; conditions: BXPC-3, iv, 768 h, time 32 day, read-out: TGI
[33] = tested on: MDA-MB-231; assay: Antitumour activity against human MDA-MB-231 cells xenografted in Crl:Nu-Foxnl nu mouse assessed as inhibition of tumour growth at total effective dose of 120 mg/kg, iv measured on day 32; format: functional; conditions: MDA-MB-231, iv, 768 h, time 32 day, read-out: TGI

| SMILES | IC50 [1] | IC50 [2] | IC50 [3] | IC50 [4] | IC50 [5] | IC50 [6] | IC50 [7] | IC50 [8] | ΔTm [13] | ΔTm [14] | ΔTm [15] | ΔTm [16] | IC50 [24] | further results |
| --- | --- | --- | --- | --- | --- | --- | --- | --- | --- | --- | --- | --- | --- | --- |
| COc1ccc2c(c1)c(=O)c1c(NCCCN3CCN(CCC(N)c4ccc5nc6ccccc6cc5c4[N+](=O)[O-])CC3)ccc3ncn2c31 (stereo unspecified) | 21 nM | 28 nM | 38 nM | 40 nM | 36 nM | 75 nM | 122 nM | 27 nM | 32.8 °C | 33.3 °C | 28.3 °C | 4.6 °C |  | inhibition in vivo at 48 mg/kg [9]: 32%; inhibition in vivo at 16 mg/kg [10]: 80%; inhibition in vivo at 160 mg/kg [11]: 64%; inhibition in vivo at 40 mg/kg [12]: 63% |
| O=c1c2ccccc2n2cnc3ccc(NCCNc4c5ccccc5nc5cccc([N+](=O)[O-])c45)c1c32 | 40 nM | 102 nM | 27 nM | 37 nM | 64 nM | 138 nM | 86 nM | 44 nM | 19.3 °C | 31.6 °C | 19.5 °C | 10.4 °C |  | IC50 [17]: 82 nM; inhibition in vivo at 16 mg/kg [18]: 60%; inhibition in vivo at 16 mg/kg [19]: 76% |
| NC(CCN1CCN(CCCNc2ccc3nnn4c5ccccc5c(=O)c2c34)CC1)c1ccc2nc3ccccc3cc2c1[N+](=O)[O-] (stereo unspecified) | 22 nM | 22 nM | 152 nM | 138 nM | 41 nM | 120 nM | 103 nM | 33 nM | 33.2 °C | 26.1 °C | 26.6 °C | 3.9 °C |  | inhibition in vivo at 8 mg/kg [20]: 39% |
| Cc1nc2ccc(NCCCN3CCN(CCC(N)c4ccc5nc6ccccc6cc5c4[N+](=O)[O-])CC3)c3c(=O)c4cc(O)ccc4n1c23 (stereo unspecified) | 24 nM | 27 nM |  | 39 nM | 18 nM | 152 nM | 151 nM |  |  |  |  |  |  | inhibition in vivo at 16 mg/kg [21]: 68%; inhibition in vivo at 120 mg/kg [22]: 64%; inhibition in vivo at 160 mg/kg [23]: 69% |
| Cc1cc(NCCCN(C)CCCNc2ccc3ncn4c5ccc(O)cc5c(=O)c2c34)c([N+](=O)[O-])c2cc3ccccc3nc12 | 59 nM | 40 nM | 52 nM | 216 nM | 59 nM | 169 nM | 152 nM | 52 nM | 27.6 °C | 18.3 °C | 10.7 °C | 2.8 °C | 95 nM | inhibition in vivo at 80 mg/kg [25]: 64%; inhibition in vivo at 20 mg/kg [26]: 55%; inhibition in vivo at 80 mg/kg [27]: 77%; inhibition in vivo at 48 mg/kg [28]: 63%; Activity [29]: Non-Toxic; Activity [30]: Non-Toxic |
| Cc1cc(NCCCN(C)CCCNc2ccc3ncn4c5ccccc5c(=O)c2c34)c([N+](=O)[O-])c2cc3ccccc3nc12 | 65 nM | 65 nM |  | 98 nM | 87 nM | 224 nM | 1180 nM |  | 21.9 °C | 23.3 °C | 23.7 °C | 3.4 °C | 25 nM | inhibition in vivo at 160 mg/kg [31]: 84%; inhibition in vivo at 160 mg/kg [32]: 47%; inhibition in vivo at 120 mg/kg [33]: 62% |
